The results in this text go back to publication PMC9317966, “Structure-function analysis of the AMPK activator SC4 and identification of a potent pan AMPK activator” (Biochemical Journal, 2022).

The structures appear in SMILES notation.

What all share (assay): Radiolabel SAMS kinase assay, GST-AMPK from HEK293T/17 cells immobilised on glutathione-Sepharose
Common to all, as to assay type: biochemical

In assay [1] the target is T1, human GST-AMPK α1β1γ1 (Homo sapiens, UniProt Q13131+Q9Y478).
T1 construct: triply transfected with full-length AMPK α1 or α2 (NH2-terminal GST fusion, pDEST27 vector); full-length AMPK α1 or α2 (NH2-terminal GST fusion, pDEST27 vector), β1 or β2 (COOH-terminal FLAG fusion, pcDNA3.1 vector); FLAG (C); made in house; host or cells: HEK293T/17 cells, transient triple transfection
Conditions: for Max. fold activation: immobilised α1β1γ1; for EC50: immobilised α1β1γ1, 0–30 µM activator. The text has this:
We generated a series of compounds to investigate whether modification of the SC4 2-hydroxybiphenyl LHS fragment affects isoform selectivity, some of which (MSG008-MSG011) are presented in Table 1. We also synthesised compound MSG012 (example I-3-54 [32]), which was reported to activate α2β2γ1 with ∼100-fold greater potency compared with α1β1γ1. MSG012 differs from SC4 by substitution of the 2-hydroxyphenyl LHS fragment with 3-cyclohexen-4-yl-1-carboxylic acid, and 2-methylbenzoic acid RHS fragment with 1-hydroxy-N,N-dimethylcyclohexan-4-yl-1-carboxamide. Our initial screen involved measuring the activity of recombinant human GST-AMPK complexes expressed in HEK293T/17 cells and immobilised on glutathione-Sepharose (Supplementary Figure S1). Enzyme activity was measured by radiolabelling the synthetic SAMS peptide substrate in the absence or presence of 1 µM compound. Consistent with our previous characterisation, SC4 activated α1β1γ1, α2β1γ1 and α2β2γ1 >2.3-fold, and weakly activated α1β2γ1 1.3-fold (Figure 1A). […] The γ isoform had little influence on AMPK activation by MSG011 as most γ2 and γ3 complexes were activated >2.2-fold at 1 µM, with α1β2γ2 being the only exception (1.6-fold activation). […] Accordingly, MSG010, MSG011 and MSG012 can be classified as pan AMPK activators.
Adherent HEK293T/17 cells at ∼50% confluency were triply transfected with full-length AMPK α1 or α2 (NH2-terminal GST fusion, pDEST27 vector), β1 or β2 (COOH-terminal FLAG fusion, pcDNA3.1 vector), and γ1, γ2 or γ3 (NH2-terminal HA fusion, pMT2 vector) in the presence of FuGENE HD transfection reagent (Promega) as per the manufacturers protocol. Cells were harvested 48 hours post-transfection by first gently washing in ice cold phosphate buffered saline (PBS; Sigma–Aldrich), then scraping in ice cold lysis buffer (50 mM TRIS pH 7.5, 150 mM NaCl, 10% (v/v) glycerol, 50 mM NaF, 5 mM sodium pyrophosphate, 1% (v/v) Triton X-100, cOmplete protease inhibitor cocktail). Lysates were clarified by centrifugation (16 000g, 3 min, 4°C), flash frozen in liquid N2 and stored at −80°C until analysis. For radioactive kinase assays, AMPK was immobilised on glutathione Sepharose 4B resin (GE Healthcare) by incubation with lysates for 1.5 h at 4°C. Following centrifugation (1000g, 3 min, 4°C), the resin was washed twice in purification buffer (50 mM HEPES pH 7.4, 150 mM NaCl, 10% (v/v) glycerol, 0.02% (v/v) Tween-20), once in 50 mM HEPES pH 7.4 with 0.02% (v/v) Tween-20, then resuspended to a 50% slurry with 50 mM HEPES pH 7.4 and 10 µl added to the activity assays. For in solution kinase assays, α1β1γ1 AMPK was eluted from glutathione-Sepharose by incubating with purification buffer supplemented with 40 mM reduced glutathione (Sigma–Aldrich).
AMPK activity was determined by phosphorylation of the SAMS peptide (Purar Chemicals, sequence: NH2-HMRSAMSGLHLVKRR-COOH) in a 25 µl reaction volume containing 100 µM SAMS peptide, 5 mM MgCl2, 200 µM ATP, [γ-^32P]-ATP (PerkinElmer) and assay buffer (50 mM HEPES pH 7.4, 1 mM DTT and 0.02% (v/v) Tween-20) and purified AMPK. Phosphotransferase activity was conducted at 30°C for 10 min and reactions were quenched by spotting 15 µl onto phosphocellulose ion-exchange chromatography paper (made in-house), followed by repeated washes in 1% H3PO4 (Merck Millipore). Ultima Gold liquid scintillation fluid (5 ml; PerkinElmer) was added to vials containing dried phosphocellulose papers, and the level of ^32P-transfer to the SAMS peptide was determined using a Tri-Carb 2900TR liquid scintillation counter (PerkinElmer).

For assay [2], the target named is T2, human GST-AMPK α1β2γ1 (Homo sapiens, UniProt O43741+Q13131).
T2 construct: triply transfected with full-length AMPK α1 or α2 (NH2-terminal GST fusion, pDEST27 vector); full-length AMPK α1 or α2 (NH2-terminal GST fusion, pDEST27 vector), β1 or β2 (COOH-terminal FLAG fusion, pcDNA3.1 vector); FLAG (C); made in house; host or cells: HEK293T/17 cells, transient triple transfection
Conditions: for Max. fold activation: immobilised α1β2γ1; for EC50: immobilised α1β2γ1, 0–30 µM activator.

Assay [3] deals with T3, human GST-AMPK α2β1γ1 (Homo sapiens, UniProt P54646+Q9Y478).
T3 construct: triply transfected with full-length AMPK α1 or α2 (NH2-terminal GST fusion, pDEST27 vector); full-length AMPK α1 or α2 (NH2-terminal GST fusion, pDEST27 vector), β1 or β2 (COOH-terminal FLAG fusion, pcDNA3.1 vector); FLAG (C); made in house; host or cells: HEK293T/17 cells, transient triple transfection
Conditions: for Max. fold activation: immobilised α2β1γ1; for EC50: immobilised α2β1γ1, 0–30 µM activator.

The target of assay [4] is T4, human GST-AMPK α2β2γ1 (Homo sapiens, UniProt O43741+P54646).
T4 construct: triply transfected with full-length AMPK α1 or α2 (NH2-terminal GST fusion, pDEST27 vector); full-length AMPK α1 or α2 (NH2-terminal GST fusion, pDEST27 vector), β1 or β2 (COOH-terminal FLAG fusion, pcDNA3.1 vector); FLAG (C); made in house; host or cells: HEK293T/17 cells, transient triple transfection
Conditions: for Max. fold activation: immobilised α2β2γ1; for EC50: immobilised α2β2γ1, 0–30 µM activator.

T3 sequence (P54646 whole entry, the tested form may be a part): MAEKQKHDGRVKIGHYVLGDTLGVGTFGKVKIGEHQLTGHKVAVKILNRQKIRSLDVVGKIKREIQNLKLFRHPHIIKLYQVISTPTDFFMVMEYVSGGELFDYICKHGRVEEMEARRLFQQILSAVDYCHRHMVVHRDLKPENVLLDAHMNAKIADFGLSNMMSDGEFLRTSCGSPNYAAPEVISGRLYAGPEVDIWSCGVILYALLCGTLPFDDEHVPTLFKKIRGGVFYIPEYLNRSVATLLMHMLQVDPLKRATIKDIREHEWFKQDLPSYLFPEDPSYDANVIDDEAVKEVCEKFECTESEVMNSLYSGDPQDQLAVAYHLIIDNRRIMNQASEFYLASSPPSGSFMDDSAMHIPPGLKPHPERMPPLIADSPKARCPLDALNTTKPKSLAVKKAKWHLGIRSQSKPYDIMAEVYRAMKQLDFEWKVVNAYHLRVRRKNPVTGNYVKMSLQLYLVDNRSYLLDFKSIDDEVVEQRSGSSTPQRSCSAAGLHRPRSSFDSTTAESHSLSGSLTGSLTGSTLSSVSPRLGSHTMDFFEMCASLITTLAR
T3 sequence (Q9Y478 whole entry, the tested form may be a part): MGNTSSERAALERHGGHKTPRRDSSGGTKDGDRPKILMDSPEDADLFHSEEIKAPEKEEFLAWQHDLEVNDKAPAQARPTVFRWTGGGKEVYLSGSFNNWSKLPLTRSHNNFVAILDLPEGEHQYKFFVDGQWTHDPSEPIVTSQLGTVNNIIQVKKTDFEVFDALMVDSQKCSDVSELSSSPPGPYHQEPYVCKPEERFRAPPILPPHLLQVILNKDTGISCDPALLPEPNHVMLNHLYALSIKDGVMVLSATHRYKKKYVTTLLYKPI
T3 sequence (P54619 whole entry partner, the tested form may be a part): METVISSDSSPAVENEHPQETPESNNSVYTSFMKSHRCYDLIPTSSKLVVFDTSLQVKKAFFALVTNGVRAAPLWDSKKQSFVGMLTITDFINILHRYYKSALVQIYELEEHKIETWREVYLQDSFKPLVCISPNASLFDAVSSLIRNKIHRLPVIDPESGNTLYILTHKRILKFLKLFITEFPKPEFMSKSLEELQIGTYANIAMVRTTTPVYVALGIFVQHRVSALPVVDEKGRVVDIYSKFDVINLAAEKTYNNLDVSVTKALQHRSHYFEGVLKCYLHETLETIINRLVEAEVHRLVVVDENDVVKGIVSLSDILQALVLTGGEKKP
T4 sequence (P54646 whole entry, the tested form may be a part): as the sequence (P54646 whole entry, the tested form may be a part) above
T4 sequence (O43741 whole entry, the tested form may be a part): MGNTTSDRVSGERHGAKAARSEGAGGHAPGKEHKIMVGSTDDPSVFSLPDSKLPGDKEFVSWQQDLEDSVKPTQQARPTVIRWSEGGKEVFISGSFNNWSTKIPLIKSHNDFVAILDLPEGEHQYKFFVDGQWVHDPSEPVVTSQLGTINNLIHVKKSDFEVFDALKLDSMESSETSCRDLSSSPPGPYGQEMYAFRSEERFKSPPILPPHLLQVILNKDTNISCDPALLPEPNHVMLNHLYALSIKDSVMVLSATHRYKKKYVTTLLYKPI
T4 sequence (P54619 whole entry partner, the tested form may be a part): as the sequence (P54619 whole entry partner, the tested form may be a part) above
T2 sequence (Q13131 whole entry, the tested form may be a part): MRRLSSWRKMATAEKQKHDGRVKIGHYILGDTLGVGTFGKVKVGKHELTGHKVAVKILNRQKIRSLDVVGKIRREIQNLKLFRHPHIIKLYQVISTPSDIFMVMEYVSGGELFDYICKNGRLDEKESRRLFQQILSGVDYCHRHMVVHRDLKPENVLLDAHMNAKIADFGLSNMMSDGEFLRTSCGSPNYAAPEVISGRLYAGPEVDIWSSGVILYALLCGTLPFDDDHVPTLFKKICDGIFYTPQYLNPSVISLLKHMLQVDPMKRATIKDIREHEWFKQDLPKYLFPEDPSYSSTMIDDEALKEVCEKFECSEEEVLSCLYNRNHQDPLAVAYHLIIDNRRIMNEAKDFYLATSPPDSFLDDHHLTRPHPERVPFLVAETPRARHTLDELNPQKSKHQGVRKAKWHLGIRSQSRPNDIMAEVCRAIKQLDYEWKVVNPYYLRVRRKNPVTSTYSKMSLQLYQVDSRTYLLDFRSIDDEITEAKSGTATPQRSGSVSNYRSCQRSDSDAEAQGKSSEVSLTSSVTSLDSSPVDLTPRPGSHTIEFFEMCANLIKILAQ
T2 sequence (O43741 whole entry, the tested form may be a part): as the sequence (O43741 whole entry, the tested form may be a part) above
T2 sequence (P54619 whole entry partner, the tested form may be a part): as the sequence (P54619 whole entry partner, the tested form may be a part) above
T1 sequence (Q13131 whole entry, the tested form may be a part): as the sequence (Q13131 whole entry, the tested form may be a part) above
T1 sequence (Q9Y478 whole entry, the tested form may be a part): as the sequence (Q9Y478 whole entry, the tested form may be a part) above
T1 sequence (P54619 whole entry partner, the tested form may be a part): as the sequence (P54619 whole entry partner, the tested form may be a part) above

On to `O[C@@H]1CO[C@H]2[C@@H]1OC[C@H]2Oc1nc2nc(-c3ccc(-c4ccccc4)cc3)c(Cl)cc2[nH]1` [MK-8722, reference compound], for which the Max. fold activation in assay [1] amounted to 2.2 fold; in assay [2], 4.4 fold; in assay [3], 7.8 fold; in assay [4], 5.8 fold. Also, the EC50 was 1210 nM in assay [1], 2180 nM in assay [2], 3250 nM in assay [3] and 5600 nM in assay [4].

On to `CC(=O)NC1CC=C(c2ccc(-c3nc4nc(Oc5ccc(C)c(C(=O)O)c5)[nH]c4cc3Cl)cc2)CC1` (centres unmarked) [MSG011, 5-((5-(4′-Acetamido-2′,3′,4′,5′-tetrahydro-[1,1′-biphenyl]-4-yl)-6-chloro-1H-imidazo[4,5-b]pyridin-2-yl)oxy)-2-methylbenzoic acid], for which the “fold AMPK activation relative to vehicle” value in assay [1] (1 µM compound) is given as greater than 2.2 fold. Further, the Max. fold activation came to 3.1 fold in assay [1], 2.3 fold in assay [2], 7.5 fold in assay [3] and 4.0 fold in assay [4]. The concentration giving a half-maximal response (EC50) in assay [1] came to 140 nM; in assay [2] it was 249 nM; in assay [3], 553 nM; in assay [4], 473 nM.
